Data reported in patent US7678913B2, “Ureas as factor Xa inhibitors” (Portola Pharmaceuticals, Inc., priority 2004, dated 2010).

The compounds below were run against T1, human plasma protein factor Xa (Homo sapiens, UniProt P00742) (assay: Factor Xa IC50 determination (cleavage of chromogenic substrate S-2765)). Conditions: fXa 1 nM, S-2765 100 μM, Tris buffered saline pH 7.4, room temperature.
T1 construct: measure proteolytic activity of the enzyme (factor Xa); purchased Haematologic Technologies (Essex Junction, Vt.); host or cells: human plasma
Assay type: biochemical
How it was run: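 Human plasma factor Xa (1 nM) preincubated 5 min at room temperature with inhibitor (0.01 nM–10 μM final) in Tris-buffered saline pH 7.4 with CaCl2, BSA and 5% DMSO. S-2765 added at 100 μM; pNA release at 405 nm over 2 min; initial velocities fitted to four-parameter equation for IC50, duplicates.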

T1 sequence (P00742 235-488 limits assumed): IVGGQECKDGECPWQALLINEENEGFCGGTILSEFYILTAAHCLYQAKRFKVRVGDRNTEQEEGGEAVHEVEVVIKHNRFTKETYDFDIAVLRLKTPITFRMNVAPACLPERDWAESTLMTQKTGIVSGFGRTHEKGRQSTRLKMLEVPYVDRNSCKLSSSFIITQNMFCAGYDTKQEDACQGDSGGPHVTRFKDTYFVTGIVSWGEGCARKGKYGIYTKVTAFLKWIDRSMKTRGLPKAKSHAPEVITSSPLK
T1 sequence (P00742 41-179 partner limits assumed): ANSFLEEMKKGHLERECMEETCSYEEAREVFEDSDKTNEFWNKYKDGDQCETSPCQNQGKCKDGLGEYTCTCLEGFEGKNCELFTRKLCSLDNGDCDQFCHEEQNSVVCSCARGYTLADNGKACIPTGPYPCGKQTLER

Structure (SMILES)	IC50
CN1CCN=C1c1ccc(NC(=O)C(NC(=O)Nc2ccc(Cl)cc2)c2ccccc2SC(F)(F)F)cc1 (stereo not shown) [Example 122, N-[4-(1-methyl-4,5-dihydro-1H-imidazol-2-yl)phenyl]-2-(2-trifluoromethylthiophenyl)-2-(4-chlorophenylaminocarbonylamino)-acetamide]	≤ 100 nM
O=C(Nc1ccc(Cl)cc1)NC(C(=O)Nc1ccc(-c2cccc[n+]2[O-])cc1)c1ccccc1SC(F)(F)F (stereo not shown) [Example 123, N-[4-(N-oxo-pyridin-2-yl)phenyl]-2-(2-trifluoromethylthiophenyl)-2-(4-chlorophenylaminocarbonylamino)-acetamide]	≤ 100 nM
CN1CCN=C1c1ccc(NC(=O)C(NC(=O)Nc2ccc(Cl)cc2)c2ccccc2Oc2ccccc2)cc1 (stereo not shown) [Example 124, N-[4-(1-methyl-4,5-dihydro-1H-imidazol-2-yl)phenyl]-2-(2-phenoxyphenyl)-2-(4-chlorophenylaminocarbonylamino)-acetamide]	≤ 100 nM
O=C(Nc1ccc(Cl)cc1)NC(C(=O)Nc1ccc(-c2cccc[n+]2[O-])cc1)c1ccccc1Oc1ccccc1 (stereo not shown) [Example 125, N-[4-(N-oxo-pyridin-2-yl)phenyl]-2-(2-phenoxyphenyl)-2-(4-chlorophenylaminocarbonylamino)-acetamide]	≤ 100 nM
CSc1ccccc1C(NC(=O)Nc1ccc(Cl)cc1)C(=O)Nc1ccc(-c2cccc[n+]2[O-])cc1 (stereo not shown) [Example 126, N-[4-(N-oxo-pyridin-2-yl)phenyl]-2-(2-methylthiophenyl)-2-(4-chlorophenylaminocarbonylamino)-acetamide]	≤ 100 nM
CN1CCC(N2CCN(C(=O)C(NC(=O)Nc3ccc(Cl)cc3)c3ccccc3F)CC2)CC1 (stereo not shown) [Example 127]	≤ 100 nM
CN1CCC(N2CCN(C(=O)C(NC(=O)Nc3ccc(Cl)cc3)c3ccccc3)CC2)CC1 (stereo not shown) [Example 128]	≤ 100 nM
C#CCC(NC(=O)Nc1ccc(Cl)cc1)C(=O)Nc1ccc(C2=NCCN2C)cc1 (stereo not shown) [Example 129, N-[4-(1-methyl-4,5-dihydro-1H-imidazol-2-yl)phenyl]-2-propargyl-2-(4-chlorophenylaminocarbonylamino)-acetamide]	≤ 100 nM
CC#CCC(NC(=O)Nc1ccc(Cl)cc1)C(=O)Nc1ccc(C2=NCCN2C)cc1 (stereo not shown) [Example 130, N-[4-(1-methyl-4,5-dihydro-1H-imidazol-2-yl)phenyl]-2-(but-2-yn-1-yl)-2-(4-chlorophenylaminocarbonylamino)-acetamide]	≤ 100 nM
CC#CCC(NC(=O)Nc1ccc(Cl)cc1)C(=O)Nc1ccc(-c2cccc[n+]2[O-])cc1 (stereo not shown) [Example 131, N-[4-(N-oxo-pyridin-2-yl)phenyl]-2-(but-2-yn-1-yl)-2-(4-chlorophenylaminocarbonylamino)-acetamide]	≤ 100 nM
C=CCC(NC(=O)Nc1ccc(Cl)cc1)C(=O)Nc1ccc(C2=NCCN2C)cc1 (stereo not shown) [Example 132, N-[4-(1-methyl-4,5-dihydro-1H-imidazol-2-yl)phenyl]-2-allyl-2-(4-chlorophenylaminocarbonylamino)-acetamide]	≤ 100 nM
C=CCC(NC(=O)Nc1ccc(Cl)cc1)C(=O)Nc1ccc(-c2cccc[n+]2[O-])cc1 (stereo not shown) [Example 133, N-[4-(N-oxo-pyridin-2-yl)phenyl]-2-allyl-2-(4-chlorophenylaminocarbonylamino)-acetamide]	≤ 100 nM
CN(C)C(=N)c1ccc(N2C(=O)C(NC(=O)Nc3ccc(Cl)cc3)Cc3ccccc32)cc1 (stereo not shown) [Example 134, 1-[4-(dimethylaminoimino)phenyl]-3-(4-chlorophenylaminocarbonylamino)-3,4-dihydroquinolin-2-one]	100 to 500 nM
N=C(c1ccc(N2C(=O)C(NC(=O)Nc3ccc(Cl)cc3)Cc3ccccc32)cc1)N1CCCC1 (stereo not shown) [Example 135]	≥ 500 nM
CN1CCN=C1c1ccc(N2C(=O)C(NC(=O)Nc3ccc(Cl)cc3)Cc3ccccc32)cc1 (stereo not shown) [Example 136, 1-[4-(1-methyl-4,5-dihyrdo-1H-imidazol-2-yl)phenyl]-3-(4-chlorophenylaminocarbonylamino)-3,4-dihydroquinolin-2-one]	≤ 100 nM
O=C(Nc1ccc(Cl)cc1)N[C@H](C(=O)Nc1ccc(-n2ccccc2=O)cc1)c1ccccc1 [Example 137, (2S) N-[4-(2-pyridon-1-yl)phenyl]-2-phenyl-2-(4-chlorophenylaminocarbonylamino)-acetamide]	≤ 100 nM
O=C(Nc1ccc(Cl)cc1)N[C@@H](C(=O)Nc1ccc(-n2ccccc2=O)cc1)c1ccccc1 [Example 138, (2R) N-[4-(2-pyridon-1-yl)phenyl]-2-phenyl-2-(4-chlorophenylaminocarbonylamino)-acetamide]	≤ 100 nM

Continued, values first:

IC50	Structure (SMILES)
≤ 100 nM	COc1ccccc1C(NC(=O)Nc1ccc(Cl)cc1)C(=O)Nc1ccc(N2CCCN(C)CC2)cc1 (stereo not shown) [Example 111, N-[4-(4-methyl-homopiperazinyl)phenyl]-2-(2-methoxyphenyl)-2-(4-chlorophenylaminocarbonylamino)-acetamide]
≤ 100 nM	COc1ccccc1C(NC(=O)Nc1ccc(Cl)cc1)C(=O)Nc1ccc(C(=N)N(C)C)cc1 (stereo not shown) [Example 112, N-[4-(dimethylaminoimino)phenyl]-2-(2-methoxyphenyl)-2-(4-chlorophenylaminocarbonylamino)-acetamide]
≤ 100 nM	COc1ccccc1C(NC(=O)Nc1ccc(Cl)cc1)C(=O)Nc1ccc(C(=N)N2CCCC2)cc1 (stereo not shown) [Example 113]
≤ 100 nM	CN1CCN=C1c1ccc(NC(=O)C(NC(=O)Nc2ccc(Cl)cc2)c2ccccc2I)cc1 (stereo not shown) [Example 114, N-[4-(1-methyl-4,5-dihydro-1H-imidazol-2-yl)phenyl]-2-(2-iodophenyl)-2-(4-chlorophenylaminocarbonylamino)-acetamide]
≤ 100 nM	O=C(Nc1ccc(Cl)cc1)NC(C(=O)Nc1ccc(-c2cccc[n+]2[O-])cc1)c1ccccc1I (stereo not shown) [Example 115, N-[4-(N-oxo-pyridin-2-yl)phenyl]-2-(2-iodophenyl)-2-(4-chlorophenylamino-carbonylamino)-acetamide]
≤ 100 nM	CN(C)C(=N)c1ccc(NC(=O)C(NC(=O)Nc2ccc(Cl)cc2)c2ccccc2I)cc1 (stereo not shown) [Example 116, N-[4-(dimethylaminoimino)phenyl]-2-(2-iodophenyl)-2-(4-chlorophenylaminocarbonylamino)-acetamide]
≤ 100 nM	N=C(c1ccc(NC(=O)C(NC(=O)Nc2ccc(Cl)cc2)c2ccccc2I)cc1)N1CCCC1 (stereo not shown) [Example 117]
≤ 100 nM	CN1CCC(N2CCN(C(=O)C(NC(=O)Nc3ccc(Cl)cc3)c3ccccc3I)CC2)CC1 (stereo not shown) [Example 118]
≤ 100 nM	CN1CCN=C1c1ccc(NC(=O)C(NC(=O)Nc2ccc(Cl)cc2)c2ccc(Br)cc2)cc1 (stereo not shown) [Example 119, N-[4-(1-methyl-4,5-dihydro-1H-imidazol-2-yl)phenyl]-2-(4-bromophenyl)-2-(4-chlorophenylaminocarbonylamino)-acetamide]
≤ 100 nM	CN1CCN=C1c1ccc(NC(=O)C(NC(=O)Nc2ccc(Cl)cc2)c2ccccc2OC(F)(F)F)cc1 (stereo not shown) [Example 120, N-[4-(1-methyl-4,5-dihydro-1H-imidazol-2-yl)phenyl]-2-(2-trifluoromethoxyphenyl)-2-(4-chlorophenylaminocarbonylamino)-acetamide]
≤ 100 nM	O=C(Nc1ccc(Cl)cc1)NC(C(=O)Nc1ccc(-c2cccc[n+]2[O-])cc1)c1ccccc1OC(F)(F)F (stereo not shown) [Example 121, N-[4-(N-oxo-pyridin-2-yl)phenyl]-2-(2-trifluoromethoxyphenyl)-2-(4-chlorophenylaminocarbonylamino)-acetamide]
